Data reported in patent US7109243B2 (IRM LLC, priority 2003, dated 2006).

Tests used:
Cathepsin S = Cathepsin S (Homo sapiens, UniProt P25774); assay: Cathepsin S inhibition assay (fluorogenic peptide substrate); type: biochemical; conditions: Table II, compounds of Formula I; read-out: Ki Cat. S
Summary of the method: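 Ki values come from nonlinear fitting of inhibited hydrolysis rates, taking free and total inhibitor concentrations as equal. Rates measured as rising fluorescence at 380/450 nm after reaction start with 50 μM final acetyl-HPVK-aminocarbamoylcoumarin.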

Cathepsin K = target: T1, Cathepsin K (Homo sapiens, UniProt P43235); assay: Cathepsin K inhibition assay (fluorogenic peptide substrate); selectivity ratio vs cathepsin S; type: biochemical; conditions: ratio of cathepsin K inhibition constant to cathepsin S inhibition constant; Table II
T1 sequence (P43235 115-329): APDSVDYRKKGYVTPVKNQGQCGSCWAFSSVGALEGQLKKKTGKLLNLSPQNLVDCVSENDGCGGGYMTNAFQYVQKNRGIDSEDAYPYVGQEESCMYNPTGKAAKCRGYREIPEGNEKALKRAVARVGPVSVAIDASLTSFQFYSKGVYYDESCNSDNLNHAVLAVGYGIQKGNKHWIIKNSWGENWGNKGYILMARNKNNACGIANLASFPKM
Summary of the method: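 Inhibition constants for competitive inhibitors come from apparent values fitted to enzyme progress curves. Substrate, acetyl-Lys-His-Pro-Lys-aminocarbamoylcoumarin (40 μM final), starts the reaction; fluorescence rise read at 380 nm excitation, 450 nm emission. Selectivity ratio: other cathepsin constant over cathepsin S constant.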

Chain of Cathepsin S (P25774 115-331, species assumed): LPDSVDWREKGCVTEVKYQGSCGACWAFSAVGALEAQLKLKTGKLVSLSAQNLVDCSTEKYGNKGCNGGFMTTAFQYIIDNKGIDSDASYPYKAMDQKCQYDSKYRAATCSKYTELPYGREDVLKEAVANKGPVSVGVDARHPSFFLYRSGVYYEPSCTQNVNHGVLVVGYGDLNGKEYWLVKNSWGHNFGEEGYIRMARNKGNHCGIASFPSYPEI

Ki (Cathepsin S)	Selectivity for Cat. S over Cat. K (Cathepsin K)	SMILES
< 100 nM	+++ (+++, >1000)	O=C(N[C@@H](CC1CCCCC1)C(=O)NCCNc1ccc(OC(F)(F)F)cc1)c1ccc(-c2cccc(OC(F)(F)F)c2)s1 [Compound 209, (S)-5-(3-Trifluoromethoxy-phenyl)-thiophene-2-carboxylic acid {2-cyclohexyl-1-[2-(4-trifluoromethoxy-phenylamino)-ethylcarbamoyl]-ethyl}-amide]
< 1000 nM	++ (++, >100)	COc1ccc(NCCNC(=O)[C@@H](NC(=O)c2cccc(C)c2)C(C)OCc2ccccc2)cc1 (stereo partly drawn) [Compound 259, (S)-N-{2-Benzyloxy-1-[2-(4-methoxy-phenylamino)-ethylcarbamoyl]-propyl}-3-methyl-benzamide]
< 100 nM	+ (+, >10)	O=C(O)c1ccc(NCCNC(=O)[C@H](CC2CCCCC2)NC(=O)c2ccc(-c3cccc(C(F)(F)F)c3)o2)cc1 [Compound 11, 4-[2-(3-Cyclohexyl-2-(S)-{[5-(3-trifluoromethyl-phenyl)-furan-2-carbonyl]-amino}-propionylamino)-ethylamino]-benzoic acid]
< 100 nM	+++ (+++, >1000)	COc1ccc(NCCNC(=O)[C@H](CCC2CCCCC2)NC(=O)c2ccc(C#N)cc2)cc1 [Compound 140, (S)-4-Cyano-N-{3-cyclohexyl-1-[2-(4-methoxy-phenylamino)-ethylcarbamoyl]-propyl}-benzamide]
< 100 nM	+++ (+++, >1000)	CC[C@@H](C(=O)N[C@@H](CC1CCCCC1)C(=O)NCCNc1ccc(OC(F)(F)F)cc1)c1ccccc1 [Compound 135, N-{2-cyclohexyl-1-(S)-[2-(4-trifluoromethoxy-phenylamino)-ethylcarbamoyl]-ethyl}-2-(R)-phenyl-butyramide]
< 100 nM	+++ (+++, >1000)	Cc1ccccc1CC(=O)N[C@@H](CC1CCCCC1)C(=O)NCCNc1ccc(F)cc1 [Compound 304, 3-Cyclohexyl-N-[2-(4-fluoro-phenylamino)-ethyl]-2-(S)-(2-o-tolyl-acetylamino)-propionamide]
< 100 nM	++ (++, >100)	N#Cc1cccc(C(=O)N[C@@H](CC2CCCCC2)C(=O)NCCNc2ccc(F)cc2)c1 [Compound 324, 3-Cyano-N-(S)-{2-cyclohexyl-1-[2-(4-fluoro-phenylamino)-ethylcarbamoyl]-ethyl}-benzamide]
< 100 nM	+++ (+++, >1000)	O=C(N[C@@H](CC1CCCCC1)C(=O)NCCNc1ccc(OC(F)(F)F)cc1)c1cccc(-c2ccccc2Cl)c1 [Compound 34, 2′-Chloro-biphenyl-3-carboxylic acid (S)-{2-cyclohexyl-1-[2-(4-trifluoromethoxy-phenylamino)-ethylcarbamoyl]-ethyl}-amide]
< 1000 nM	++ (++, >100)	O=C(N[C@@H](CC1CCCCC1)C(=O)NCCNc1ccc(F)cc1)c1ccnnc1 [Compound 295, Pyridazine-4-carboxylic acid (S)-{2-cyclohexyl-1-[2-(4-fluoro-phenylamino)-ethylcarbamoyl]-ethyl}-amide]
< 100 nM	++ (++, >100)	O=C(Cc1ccc(F)cc1)N[C@@H](CC1CCCCC1)C(=O)NCCNc1ccc(F)cc1 [Compound 152, 3-Cyclohexyl-2-(S)-[2-(4-fluoro-phenyl)-acetylamino]-N-[2-(4-fluoro-phenylamino)-ethyl]-propionamide]
< 100 nM	++ (++, >100)	CC(C(=O)NC(CC1CCCCC1)C(=O)NCCNc1ccc(F)cc1)c1ccc(-c2ccccc2)c(F)c1 [Compound 308, N-(S)-{2-cyclohexyl-1-[2-(4-fluoro-phenylamino)-ethylcarbamoyl]-ethyl}-2-(2-fluoro-biphenyl-4-yl)-propionamide]
< 1000 nM	++ (++, >100)	CC(=O)N1CCC(C(=O)N[C@@H](CC2CCCCC2)C(=O)NCCNc2ccc(OC(F)(F)F)cc2)CC1 [Compound 14, 1-Acetyl-piperidine-4-carboxylic acid (S)-{2-cyclohexyl-1-[2-(4-trifluoromethoxy-phenylamino)-ethylcarbamoyl]-ethyl}-amide]
< 100 nM	++ (++, >100)	O=C(N[C@@H](CC1CCCCC1)C(=O)NCCNc1ccc(F)cc1)C1CC1 [Compound 298, Cyclopropanecarboxylic acid (S)-{2-cyclohexyl-1-[2-(4-fluoro-phenylamino)-ethylcarbamoyl]-ethyl}-amide]

The remaining lines, values behind:

SMILES	Ki (Cathepsin S)	Selectivity for Cat. S over Cat. K (Cathepsin K)
O=C(Cc1cccs1)N[C@@H](CC1CCCCC1)C(=O)NCCNc1ccc(F)cc1 [Compound 76, 3-Cyclohexyl-N-[2-(4-fluoro-phenylamino)-ethyl]-2-(S)-(2-thiophen-2-yl-acetylamino)-propionamide]	< 100 nM	+++ (+++, >1000)
O=C(N[C@@H](CC1CCCCC1)C(=O)NCCNc1ccc(OC(F)(F)F)cc1)c1ccc(-c2ccc(OC(F)(F)F)cc2)s1 [Compound 207, (S)-5-(4-Trifluoromethoxy-phenyl)-thiophene-2-carboxylic acid {2-cyclohexyl-1-[2-(4-trifluoromethoxy-phenylamino)-ethylcarbamoyl]-ethyl}-amide]	< 1000 nM	++ (++, >100)
COc1ccc(NCCNC(=O)[C@H](CC2CCCCC2)NC(=O)c2ccc(OC)cc2)cc1 [Compound 153, (S)-N-{2-Cyclohexyl-1-[2-(4-methoxy-phenylamino)-ethylcarbamoyl]-ethyl}-4-methoxy-benzamide]	< 100 nM	+ (+, >10)
CS(=O)(=O)c1ccc(C(=O)N[C@@H](CC2CCCCC2)C(=O)NCCNc2ccc(OC(F)(F)F)cc2)cc1 [Compound 19, N-(S)-{2-cyclohexyl-1-[2-(4-trifluoromethoxy-phenylamino)-ethylcarbamoyl]-ethyl}-4-methanesulfonyl-benzamide]	< 1000 nM	+ (+, >10)
COc1ccc(NCCNC(=O)C(NC(=O)c2cccc(C)c2)c2ccc(Cl)cc2)cc1 (racemic) [Compound 8, (±)-N-((2-(4-methoxyphenylamino)ethylcarbamoyl)(4-chlorophenyl)methyl)-3-methylbenzamide]	< 100 nM	+++ (+++, >1000)
O=C(N[C@@H](CC1CCCCC1)C(=O)NCCNc1ccc(OC(F)(F)F)cc1)C1CC(=O)N(Cc2ccco2)C1 (stereo partly drawn) [Compound 39, 1-Furan-2-ylmethyl-5-oxo-pyrrolidine-3-carboxylic acid (S)-{2-cyclohexyl-1-[2-(4-trifluoromethoxy-phenylamino)-ethylcarbamoyl]-ethyl}-amide]	< 1000 nM	++ (++, >100)
O=C(N[C@@H](CC1CCCCC1)C(=O)NCCNc1ccc(OC(F)(F)F)cc1)c1ccsc1 [Compound 37, Thiophene-3-carboxylic acid (S)-{2-cyclohexyl-1-[2-(4-trifluoromethoxy-phenylamino)-ethylcarbamoyl]-ethyl}-amide]	< 100 nM	++ (++, >100)
COc1ccc(NCCNC(=O)[C@H](CC2CCCCC2)NC(=O)c2ccc(F)c(C)c2)cc1 [Compound 167, (S)-N-{2-Cyclohexyl-1-[2-(4-methoxy-phenylamino)-ethylcarbamoyl]-ethyl}-4-fluoro-3-methyl-benzamide]	< 100 nM	+++ (+++, >1000)
